Measurements as given in patent US9492510B2, “Composition and method for inhibiting tumor cell growth” (St. Jude Children's Research Hospital, priority 2006, dated 2016).
“Also recorded” adds a separate entry of the source. Where two headings read alike, the source gives them in different places.

What was measured:
[1] = system: rCE (rabbit liver carboxylesterase), wild type, SEQ ID NO:2; settings: CPT-11 hydrolysis; cited from earlier work
[2] = system: U373MG cells; assay: Growth inhibition by CPT-11 of U373MG cells; format: cell-based, human; settings: Homo sapiens, U373 MG, read-out: CPT-11 IC50; U373IRES cells (pIRESneo, no enzyme expressed)
Protocol: Experiments were also performed in human brain tumor cells (U373MG) where the growth of the cells was examined in cells that expressed the mutant form of the human CE enzyme.
(§1) Experiments were also performed to determine whether cells expressing a secreted form of hCElm6 (SEQ ID NO:16) produced media that had CE activity.
(§2) Transfection of Cell Lines. Transient transfection of Cos7 cells was achieved by electroporation (Potter, et al. 1998. Cancer Res. 52:2646-2651). For the generation of stable cell lines, cDNAs were ligated into pIRESneo and U373MG cells were electroporated under similar conditions. Transfectants were selected in media containing 400 μg/ml of G418. Since the CE cDNA was linked via an internal ribosome entry sequence (IRES) to the neomycin gene, selection of individual G418-resistant clones was not necessary.
(§3) Construction of Adenovirus. Replication-deficient adenovirus expressing hCElm6 or rCE were constructed using standard protocols (Wierdl, et al. 2001. Cancer Res. 61:5078-5082). Multiplicity of infection (moi) was defined as the number of plaques produced in 1×10^6 293 cells in a total volume of 1 ml of media after incubation with virus for 1 hour.
(§4) Growth Inhibition Assays.

[3] = patients; cited from earlier work
[4] = system: Rh30 cells; assay: Growth inhibition of adenovirus-transduced Rh30 cells by CPT-11; format: cell-based; settings: Homo sapiens
Protocol: as §3, §4

[5] = CPT-11 administered to humans; cited from earlier work
[6] = biological target: T1, hCE1 variant hCE1m6 (hCE1mut6; L362M, M363L, K459R, F448Y, Q449R, L358I, S364G, Q362 insertion), SEQ ID NO:3 (Homo sapiens, UniProt P23141, F449Y/K460R/L358I/L363M/M364L/Q450R/S365G); assay: Kinetics of CPT-11 hydrolysis by purified hCE1m6; format: biochemical
T1 sequence (P23141 18-567 L358I/L363M/M364L/S365G/F449Y/Q450R/K460R): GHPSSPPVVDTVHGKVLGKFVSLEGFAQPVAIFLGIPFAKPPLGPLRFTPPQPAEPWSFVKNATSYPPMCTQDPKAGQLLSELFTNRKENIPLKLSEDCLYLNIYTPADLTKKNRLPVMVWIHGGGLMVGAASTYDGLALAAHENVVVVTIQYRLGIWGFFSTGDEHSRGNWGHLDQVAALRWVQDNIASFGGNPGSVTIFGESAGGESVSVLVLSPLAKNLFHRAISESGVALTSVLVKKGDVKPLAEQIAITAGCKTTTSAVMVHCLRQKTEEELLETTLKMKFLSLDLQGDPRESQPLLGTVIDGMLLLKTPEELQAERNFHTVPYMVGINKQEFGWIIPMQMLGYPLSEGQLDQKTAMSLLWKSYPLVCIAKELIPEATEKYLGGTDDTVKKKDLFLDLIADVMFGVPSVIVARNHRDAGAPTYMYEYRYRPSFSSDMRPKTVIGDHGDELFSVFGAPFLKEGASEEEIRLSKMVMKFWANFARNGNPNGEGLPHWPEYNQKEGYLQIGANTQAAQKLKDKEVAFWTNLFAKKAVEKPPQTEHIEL
From the text: (§5) These experiments determined the Km, Vmax, kcat and kcat/Km values for the different enzymes.
(§6) Protein Purification. […] For hiCE, an alternative purification procedure was developed using DEAE chromatography and elution with a pH/salt gradient.
(§7) Determination of Kinetic Parameters for Substrate Hydrolysis.

[7] = system: SK-N-As cells; assay: Growth inhibition of adenovirus-transduced SK-N-As cells by CPT-11; format: cell-based; settings: Homo sapiens
Protocol: as §3, §4

[8] = system: U373MG cells; assay: Growth inhibition of U373MG cells expressing intracellular or secreted hCE1mut6 by CPT-11; format: cell-based; settings: Homo sapiens, U373 MG, read-out: IC50 for CPT-11
Protocol: as §1, §4

[9] = system: hCE1 (human liver carboxylesterase), wild type, SEQ ID NO:1; settings: CPT-11 hydrolysis; cited from earlier work
[10] = biological target: T2, hiCE (human intestinal carboxylesterase) (Homo sapiens, UniProt O00748); assay: Kinetics of CPT-11 hydrolysis by purified hiCE; format: biochemical
T2 sequence (O00748 27-559): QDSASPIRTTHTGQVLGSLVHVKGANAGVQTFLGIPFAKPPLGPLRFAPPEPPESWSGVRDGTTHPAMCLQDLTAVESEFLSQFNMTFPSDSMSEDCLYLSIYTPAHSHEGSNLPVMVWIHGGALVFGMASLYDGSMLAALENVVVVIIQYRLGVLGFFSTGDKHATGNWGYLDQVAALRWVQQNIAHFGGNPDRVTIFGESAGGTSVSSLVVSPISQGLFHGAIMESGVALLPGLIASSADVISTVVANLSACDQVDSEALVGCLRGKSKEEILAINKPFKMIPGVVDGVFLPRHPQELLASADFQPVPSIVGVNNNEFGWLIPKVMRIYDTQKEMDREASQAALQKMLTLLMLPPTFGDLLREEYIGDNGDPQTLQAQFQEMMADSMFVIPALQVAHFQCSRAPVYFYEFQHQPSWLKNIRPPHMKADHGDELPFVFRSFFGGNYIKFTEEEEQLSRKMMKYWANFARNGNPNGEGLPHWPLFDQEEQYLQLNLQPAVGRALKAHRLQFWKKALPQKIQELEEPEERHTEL
From the text: as §5, §6, §7

[11] = system: COS7 cells; assay: Growth inhibition of transiently transfected Cos7 cells by CPT-11; format: cell-based, African green monkey; settings: Chlorocebus sabaeus
Protocol: as §2, §4

[12] = mice, within the first hour of dosing; cited from earlier work

## CCc1c2c(nc3ccc(OC(=O)N4CCC(N5CCCCC5)CC4)cc13)-c1cc3c(c(=O)n1C2)COC(=O)[C@]3(O)CC [CPT-11, 7-ethyl-10-[4-(1-piperidino)-1-piperidino]carbonyloxycamptothecin]
[1]
  Km: 6.2 ± 0.63 µM
  Vmax: 18 ± 0.9 nmol/min/mg
[2]
  IC50: 24 µM
[3]
  dose-limiting toxicity: myelosuppression and secretory diarrhea limit the amount of prodrug; also recorded: myelosuppression and secretory diarrhea limit the amount of drug
[4]; Rh30, read-out: CPT-11 IC50, AdCMVhCE1m6, hCE1m6
  IC50: 2 µM
[4]; Rh30, read-out: CPT-11 IC50, AdCMVrCE, rCE
  IC50: 3.4 µM
[4]; Rh30, read-out: CPT-11 IC50, AdVC, no enzyme
  IC50: 64.3 µM
[4]; Rh30, read-out: IC50, Rh30, transduced cells
  IC50: 0.0006 µM
[5]
  fraction of CPT-11 converted to SN-38: less than 5%
[6]
  Vmax: 2.11 ± 0.06 nmol/min/mg
[7]; read-out: CPT-11 IC50, AdCMVhCE1m6, hCE1m6
  IC50: 0.5 µM
[7]; read-out: CPT-11 IC50, AdCMVrCE, rCE
  IC50: 0.6 µM
[7]; read-out: CPT-11 IC50, AdVC, no enzyme
  IC50: 31.7 µM
[7]; read-out: IC50, SK-N-As, transduced cells
  IC50: 0.002 µM
[8]
  IC50: 7.08 µM
[9]
  Km: 82.8 ± 9.6 µM
  Vmax: 0.36 ± 0.017 nmol/min/mg
[10]
  Vmax: 1.49 ± 0.04 nmol/min/mg
[11]; COS-7, read-out: IC50 (growth inhibition), cells expressing hCE1mut6
  IC50: 12 to 20 µM
[11]; COS-7, read-out: IC50 (growth inhibition), cells expressing rCE
  IC50: 12 to 20 µM
[11]; COS-7, read-out: IC50 (growth inhibition), cells expressing wild-type hCE1
  IC50: 77.1 µM
[12]
  fraction of CPT-11 hydrolyzed to SN-38: greater than 50%
